Tests used:
[1] = molecular target: T1, HDAC6 (Homo sapiens, UniProt Q9UBN7); experiment: HDAC6 enzyme inhibition assay (fluorimetric); type: biochemical; conditions: 1 μM compound; 3 h pre-incubation; recombinant full length HDAC6; read-out: HDAC6 % inh @ 1 μM
T1 sequence (Q9UBN7 1-1215): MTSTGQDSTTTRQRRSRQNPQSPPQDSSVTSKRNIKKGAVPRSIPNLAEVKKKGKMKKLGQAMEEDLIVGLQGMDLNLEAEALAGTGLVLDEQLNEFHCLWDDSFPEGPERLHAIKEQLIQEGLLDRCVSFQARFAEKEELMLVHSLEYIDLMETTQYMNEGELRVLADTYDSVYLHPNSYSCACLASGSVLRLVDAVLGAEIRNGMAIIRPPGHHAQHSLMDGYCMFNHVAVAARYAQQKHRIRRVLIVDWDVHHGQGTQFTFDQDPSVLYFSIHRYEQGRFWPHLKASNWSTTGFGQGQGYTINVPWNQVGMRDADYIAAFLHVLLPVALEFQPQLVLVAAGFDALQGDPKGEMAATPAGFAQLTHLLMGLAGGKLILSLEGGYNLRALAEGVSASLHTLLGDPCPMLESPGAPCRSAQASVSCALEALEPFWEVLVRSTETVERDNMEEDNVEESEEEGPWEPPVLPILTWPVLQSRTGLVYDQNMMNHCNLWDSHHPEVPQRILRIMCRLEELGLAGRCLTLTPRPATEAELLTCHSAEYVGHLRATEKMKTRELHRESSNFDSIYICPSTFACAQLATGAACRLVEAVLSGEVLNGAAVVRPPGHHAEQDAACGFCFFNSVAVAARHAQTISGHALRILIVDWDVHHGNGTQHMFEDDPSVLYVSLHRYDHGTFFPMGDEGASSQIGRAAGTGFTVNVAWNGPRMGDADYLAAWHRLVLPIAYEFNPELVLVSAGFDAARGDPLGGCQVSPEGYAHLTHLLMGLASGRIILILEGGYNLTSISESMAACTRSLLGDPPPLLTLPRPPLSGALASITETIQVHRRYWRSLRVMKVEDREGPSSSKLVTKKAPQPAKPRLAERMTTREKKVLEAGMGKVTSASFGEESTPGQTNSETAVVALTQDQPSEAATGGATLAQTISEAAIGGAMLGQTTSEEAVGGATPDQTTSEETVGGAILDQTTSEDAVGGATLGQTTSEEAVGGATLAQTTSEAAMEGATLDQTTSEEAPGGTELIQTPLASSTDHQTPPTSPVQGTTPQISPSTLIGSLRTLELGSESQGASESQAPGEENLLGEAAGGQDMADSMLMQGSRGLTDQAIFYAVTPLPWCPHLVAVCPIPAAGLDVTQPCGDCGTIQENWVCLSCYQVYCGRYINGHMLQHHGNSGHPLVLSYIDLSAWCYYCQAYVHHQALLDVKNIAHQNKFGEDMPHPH
Description: (§1) HDAC6 and HDAC2 Enzyme Inhibition Assay
(§2) A fluorimetric assay was used for testing the activity of compounds of the invention against HDAC6 and HDAC2.
(§3) The compounds were dissolved in DMSO. Serial dilutions were prepared in DMSO and then diluted 1:10 in HDAC assay buffer (Tris-buffered solution, BPS Bioscience Inc. #50031). 5 μl of the compound dilution was added to a 50 μl reaction so that the final concentration of DMSO was 1%.
(§4) The compounds were pre-incubated in duplicate at RT for 3 hours in a mixture containing HDAC assay buffer, 5 μg BSA and recombinant HDAC enzyme (see table above). The enzymatic reactions were initiated by the addition of a fluorogenic, acetylated peptide substrate based on a histone protein (BPS Bioscience Inc. #50037) to a final concentration of 10 μM. The enzymatic reaction proceeded for 30 minutes at 37° C. Then, 50 μl of 2× HDAC Developer, which contains peptidase activity and Trichostatin A (BPS Bioscience Inc. #50030) was added and the plate was incubated at RT for an additional 15 minutes. Fluorescence intensity was measured at an excitation of 360 nm and an emission of 460 nm using a Tecan Infinite M1000 microplate reader.
(§5) Trichostatin A (TSA, Selleckchem #S1045) was used as reference inhibitor.
(§6) The fluorescent intensity data were analyzed using the computer software Graphpad Prism (GraphPad Software, San Diego, CA). 100% activity was defined as the fluorescent intensity (Ft) in the absence of the compound. 0% activity was defined as the fluorescent intensity (Fb) in the absence of the enzyme. The percent activity in the presence of each compound was calculated according to the following equation: % activity=(F−Fb)/(Ft−Fb), where F=the fluorescent intensity in the presence of the compound.

[2] = molecular target: T1, HDAC6; experiment: In vitro cell-based assay: acetylation levels of Alpha-Tubulin by Western Blot in MOLP8 cells; design: endogenous in cells; host or cells: MOLP8; conditions: 18 h, acetyl-alpha-tubulin relative band intensity, ACY-1215 1 μM = 100%
Description: In Vitro Cell-Based Assay
In order to determine the cellular activity of HDAC6 upon treatment with HDAC6 inhibitors, acetylation levels of Alpha-Tubulin (a HDAC6-specific substrate) were measured by Western Blot. For this, MOLP8 cells were seeded in 6-well plates at a cell density of 500.000 cells/well and treated with the selected compounds at 5 and 1 μM for 18 h at 37° C. and 5% CO2 in a humidified tissue culture incubator. Consecutively, cell pellets were collected and whole protein extracts prepared using RIPA buffer (SIGMA) supplemented with 1× protease inhibitors (cOmplete mini, Roche). Protein concentration was determined with Bradford's reagent (Bio-Rad) as per manufacturer's instructions, and 7 μg of total protein were loaded into pre-cast 10% NuPAGE Novex gels (Life Technologies). Gels were run in […] (Life Technologies) and proteins were transferred using the iBlot 2 Dry Blotting System (Life Technologies). Blots were subsequently rinsed in distilled water and stained with Ponceau S solution (SIGMA). Blots were then washed in distilled water to remove Ponceau excess and scanned with the Epson Perfection V600 Photo professional Scanner. After this, blots were de-stained and blocked in 5% milk/PBS-Tween 0.1% for 1 h at room temperature followed by incubation with anti-Acetyl-alpha Tubulin (SIGMA cat. #T7451, 1:10.000 dilution) and anti-Beta-actin (SIGMA, cat. #A5316, 1:2.000 dilution) primary antibodies in 5% milk/PBS-T 0.1%, overnight at 4° C. on a shaking platform. After incubation, blots were washed 3 times for 5 minutes each in PBS-Tween 0.5% and incubated with anti-mouse HRP-conjugated secondary antibody (Jackson Immuno Research, cat. #115-035-068) at 1:8.000 in 5% milk/PBS-Tween 0.1%, 1 h at room temperature on a shaking platform. After 3 washes of 5 minutes each with PBS-Tween 0.5% and 1 wash in PBS 1×, blots were developed with ECL Plus (GE Healthcare) and the chemiluminescent reaction imaged with the G:Box Chemi XRQ (Syngene) imaging system. WB and Ponceau images were analysed with ImageJ software, WB band intensities normalized by either total protein or Beta-actin content and made relative to ACY-1215 1 μM (equivalent to 100%). ACY-1215 is a HDAC6 inhibitor, and is also known as ricolinostat, with chemical name 2-(diphenylamino)-N-[7-(hydroxyamino)-7-oxoheptyl]-5-pyrimidinecarboxamide. Percentage of band intensities was classified as follows: […]

[3] = molecular target: T2, HDAC2 (Homo sapiens, UniProt Q92769); experiment: HDAC2 enzyme inhibition assay (fluorimetric); type: biochemical; conditions: 1 μM compound; 3 h pre-incubation; recombinant full length HDAC2; read-out: HDAC2 % inh @ 1 μM
T2 construct: (full length with C-terminal His-tag); His (C); purchased BPS Bioscience Inc. 50002
T2 sequence (Q92769 whole entry): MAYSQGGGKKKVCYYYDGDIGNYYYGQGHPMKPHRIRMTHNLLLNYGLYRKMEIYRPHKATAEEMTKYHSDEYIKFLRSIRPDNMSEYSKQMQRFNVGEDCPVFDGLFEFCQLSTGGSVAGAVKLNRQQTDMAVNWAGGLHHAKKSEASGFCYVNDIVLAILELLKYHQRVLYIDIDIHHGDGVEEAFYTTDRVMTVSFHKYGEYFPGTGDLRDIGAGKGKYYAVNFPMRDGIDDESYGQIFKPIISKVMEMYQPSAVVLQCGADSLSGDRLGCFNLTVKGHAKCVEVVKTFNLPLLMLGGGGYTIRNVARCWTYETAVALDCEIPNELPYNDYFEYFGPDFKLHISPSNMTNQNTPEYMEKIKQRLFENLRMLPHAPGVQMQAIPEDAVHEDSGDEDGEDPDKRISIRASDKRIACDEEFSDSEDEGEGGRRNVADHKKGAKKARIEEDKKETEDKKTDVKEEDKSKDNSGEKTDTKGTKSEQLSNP
Description: as §1, §2, §3, §4, §5, §6

Row | inhibition at 1 µM [1] [%] | Cellular activity @1 uM [2] | Cellular activity @5 uM [2] | inhibition at 1 µM [3] [%] | Compound
1 | 88 | − (<50) | + (50-150) | – | FC(F)(F)c1nc(-c2ccnc(-c3cc(OCCN4CCOCC4)ccn3)c2)no1 [Example 1t, 4-(2-((4′-(5-(Trifluoromethyl)-1,2,4-oxadiazol-3-yl)-[2,2′-bipyridin]-4-yl)oxy)ethyl)morpholine]
2 | 78 | + (50-150) | ++ (150-300) | – | CCCCn1c(C(=O)NCC)cc2cc(-c3cc(-c4noc(C(F)(F)F)n4)ccn3)ncc21 [Example 1d, 1-Butyl-N-ethyl-5-(4-(5-(trifluoromethyl)-1,2,4-oxadiazol-3-yl)pyridin-2-yl)-1H-pyrrolo[2,3-c]pyridine-2-carboxamide]
3 | 97 | ++ (150-300) | +++ (>300) | 23 | FC(F)(F)c1nc(-c2ccnc(-c3cc4c(ccn4C4CCOCC4)cn3)c2)no1 [Example 1o, 3-(2-(1-(Tetrahydro-2H-pyran-4-yl)-1H-pyrrolo[3,2-c]pyridin-6-yl)pyridin-4-yl)-5-(trifluoromethyl)-1,2,4-oxadiazole]
4 | 96 | + (50-150) | ++ (150-300) | 35 | CCCn1cc(CO)c2cc(-c3cc(-c4noc(C(F)(F)F)n4)ccn3)ncc21 [Example 1ah, (1-Propyl-5-(4-(5-(trifluoromethyl)-1,2,4-oxadiazol-3-yl)pyridin-2-yl)-1H-pyrrolo[2,3-c]pyridin-3-yl)methanol]
5 | 92 | ++ (150-300) | ++ (150-300) | – | FC(F)(F)c1nc(-c2ccnc(-c3cc4c(ccn4CC4CCOCC4)cn3)c2)no1 [Example 1r, 3-(2-(1-((Tetrahydro-2H-pyran-4-yl)methyl)-1H-pyrrolo[3,2-c]pyridin-6-yl)pyridin-4-yl)-5-(trifluoromethyl)-1,2,4-oxadiazole]
6 | 84 | + (50-150) | ++ (150-300) | – | CCCCn1c(C(=O)N(C)C)cc2cc(-c3cc(-c4noc(C(F)(F)F)n4)ccn3)ncc21 [Example 1b, 1-Butyl-N,N-dimethyl-5-(4-(5-(trifluoromethyl)-1,2,4-oxadiazol-3-yl)pyridin-2-yl)-1H-pyrrolo[2,3-c]pyridine-2-carboxamide]
7 | 81 | − (<50) | + (50-150) | – | CCN(CC)CCCOc1cnc(-c2cc(-c3noc(C(F)(F)F)n3)ccn2)nc1 [Example 1m, N,N-Diethyl-3-(2-(4-(5-(trifluoromethyl)-1,2,4-oxadiazol-3-yl)pyridin-2-yl)pyrimidin-5-yloxy)propan-1-amine]
8 | 96 | + (50-150) | ++ (150-300) | – | CCCn1cc(CN2CCOCC2)c2cc(-c3cc(-c4noc(C(F)(F)F)n4)ccn3)ncc21 [Example 1h, 4-((1-Propyl-5-(4-(5-(trifluoromethyl)-1,2,4-oxadiazol-3-yl)pyridin-2-yl)-1H-pyrrolo[2,3-c]pyridin-3-yl)methyl)morpholine]
9 | 92 | + (50-150) | + (50-150) | – | FC(F)(F)c1nc(-c2ccnc(-c3cc4c(CN5CCCCC5)n[nH]c4cn3)c2)no1 [Example 1aa, 3-(2-(3-(Piperidin-1-ylmethyl)-1H-pyrazolo[3,4-c]pyridin-5-yl)pyridin-4-yl)-5-(trifluoromethyl)-1,2,4-oxadiazole]
10 | 79 | − (<50) | + (50-150) | – | CCCCn1ccc2cc(-c3cc(-c4noc(C(F)(F)F)n4)ccn3)ncc21 [Example 1, 3-(2-(1-Butyl-1H-pyrrolo[2,3-c]pyridin-5-yl)pyridin-4-yl)-5-(trifluoromethyl)-1,2,4-oxadiazole]

Source: US12668591B2, “1,2,4-oxadiazole derivatives as histone deacetylase 6 inhibitors” (Oryzon Genomics, S.A., priority 2017, dated 2026)
